# Experimental data as given in US8138212B2, “Synergistic microbicidal compositions” (Rohm and Haas Company, priority 2009, dated 2012).
# Where two headings read alike, the source gives them in different places.
# What was measured:
# Format in all cases: cell-based
# [1] = tested on: Aspergillus niger (A. niger—ATCC 16404); experiment: Synergy test, microtiter plate high resolution MIC assay, mold; details: for MIC: Aspergillus niger
# Description: (§1) One skilled in the art will recognize that the sensitivity of other microorganisms to the particular combinations will vary and, as a result, the concentrations, the ratios, for each, or both, of the compounds may vary from those detailed in these examples. The concentrations and ratios may also vary under different test conditions or with different test methods. One measure of synergy is the industrially accepted method described by Kull, […]. and Mayer, R. L., in Applied Microbiology 9:538-541 (1961), using the ratio determined by the formula: Qa/QA+Qb/QB=Synergy Index (“SI”) wherein: • QA=concentration of compound A (first component) in ppm, acting alone, which produced an end point (MIC of Compound A). • Qa=concentration of compound A in ppm, in the mixture, which produced an end point. • QB=concentration of compound B (second component) in ppm, acting alone, which produced an end point (MIC of Compound B). • Qb=concentration of compound B in ppm, in the mixture, which produced an end point. When the sum of Qa/QA and Qb/QB is greater than one, antagonism is indicated. […] The lower the SI, the greater is the synergy shown by that particular mixture. The minimum inhibitory concentration (MIC) of a microbicide is the lowest concentration tested under a specific set of conditions that prevents the growth of the tested microorganisms. Synergy tests were conducted using standard microtiter plate assays with media designed for optimal growth of the test microorganism. Minimal salt medium supplemented with 0.2% glucose and 0.1% yeast extract ([…] medium) was used for testing bacteria; Potato Dextrose Broth (PDB medium) was used for testing yeast and mold. In this method, a wide range of combinations of microbicides and other personal care raw materials was tested by conducting high resolution MIC assays in the presence of various concentrations of MIT, or BIT. […] The synergy of the combinations of the present invention was determined against a bacterium, Escherichia coli (E. coli-ATCC #8739), and/or a yeast, Candida albicans (C. albicans-ATCC 10231), and/or a mold, Aspergillus niger (A. niger-ATCC 16404). The bacteria were used at a concentration of about 5×10^6 bacteria per mL and the yeast and mold at 5×10^5 fungi per mL. These microorganisms are representative of natural contaminants in many consumer and industrial applications. […] (yeast and mold) or 30° C. (bacteria). […] In each test, First Component (A) was MIT and the Second Component (B) was the other microbicide, formulation ingredient, or raw material.
# [2] = tested on: Candida albicans (C. albicans—ATCC 10231); experiment: Synergy test, microtiter plate high resolution MIC assay, yeast; details: for MIC: Candida albicans
# Description: as §1
# [3] = tested on: Escherichia coli (E. coli—ATCC #8739); experiment: Synergy test, microtiter plate high resolution MIC assay, bacterium; details: E. coli 8739, M9GY medium; for MIC: Escherichia coli, read-out: QB: MIC of second component (B) acting alone
# Description: as §1
# [4] = A. niger 16404, PDB medium, 3 days
# [5] = C. albicans 10231, PDB medium, 2 days
# [6] = ATCC16404, 72 h, A. niger 16404, PDB medium, 3 days, read-out: QB: MIC of second component (B) acting alone
# [7] = C. albicans 10231, PDB medium, 1 day
# [8] = ATCC10231, 24 h, C. albicans 10231, PDB medium, 1 day, read-out: QB: MIC of second component (B) acting alone
# [9] = ATCC10231, 48 h, C. albicans 10231, PDB medium, 2 days, read-out: QB: MIC of second component (B) acting alone
# [10] = A. niger 16404, PDB medium, 10 days
# [11] = ATCC16404, 240 h, A. niger 16404, PDB medium, 10 days, read-out: QB: MIC of second component (B) acting alone
# [12] = A. niger 16404, PDB medium, 6 days
# [13] = C. albicans 10231, PDB medium, 3 days
Compound,"MIC [2, 9]","MIC ([3]; ATCC8739, 24 h, 1 day)","SI (Synergy Index, Qa/QA+Qb/QB) [1, 4]","SI (Synergy Index, Qa/QA+Qb/QB) [2, 5]","SI (Synergy Index, Qa/QA+Qb/QB) [2, 7]","SI (Synergy Index, Qa/QA+Qb/QB) ([3]; 1 day)","SI (Synergy Index, Qa/QA+Qb/QB) [1, 10]","SI (Synergy Index, Qa/QA+Qb/QB) [1, 12]","SI (Synergy Index, Qa/QA+Qb/QB) [2, 13]",further results
"O=C(O)CC(NC(CC(=O)O)C(=O)O)C(=O)O (stereo not shown) [IDS, iminodisuccinate]",–,–,1.00,1.00,–,–,–,–,–,"QB: MIC of second component (B) acting alone [1, 4]: 5000 ppm"
"CCCCCCCCC(O)CO (stereo not shown) [decylene glycol, 1,2-decanediol]",2000 µg/mL,–,1.00,1.00,1.00,–,–,–,–,"MIC [1, 6]: 2000 µg/mL; MIC [2, 8]: 2000 µg/mL"
"O=P(O)(O)O[C@H]1[C@H](OP(=O)(O)O)[C@@H](OP(=O)(O)O)[C@H](OP(=O)(O)O)[C@@H](OP(=O)(O)O)[C@H]1OP(=O)(O)O [phytic acid, inositol hexaphosphoric acid]",3000 µg/mL,5000 µg/mL,–,1.00,–,1.00,1.00,–,–,"MIC [1, 11]: 20000 µg/mL"
"CCCCCCCCCC(=O)O [capric acid, decanoic acid]",2000 µg/mL,–,–,1.00,–,–,–,1.00,–,"SI (Synergy Index, Qa/QA+Qb/QB) ([3]; 3 days): 1.00; MIC ([3]; ATCC8739, 72 h, 3 days): 10000 µg/mL; MIC ([1]; ATCC16404, 144 h, A. niger 16404, PDB medium, 6 days, read-out: QB: MIC of second component (B) acting alone): 5000 µg/mL"
"CC(O)COc1ccccc1 (stereo not shown) [phenoxypropanol, propylene glycol phenyl ether]",–,–,1.00,–,–,–,–,–,1.00,"MIC [1, 6]: 3000 µg/mL; MIC ([2]; ATCC10231, 72 h, C. albicans 10231, PDB medium, 3 days, read-out: QB: MIC of second component (B) acting alone): 5000 µg/mL"
"CCC(=O)O [propionic acid, ethanecarboxylic acid]",2000 µg/mL,5000 µg/mL,–,1.00,1.00,1.00,1.00,–,–,"MIC [1, 11]: 500 µg/mL; MIC [2, 8]: 2000 µg/mL"
"O=c1[nH]sc2ccccc12 [BIT, 1,2-benzisothiazolin-3-one]",–,–,1.00,1.00,1.00,1.00,1.00,1.00,1.00,"QA: MIC of first component (A) acting alone ([3]; 1 day): 15 ppm; QA: MIC of first component (A) acting alone ([3]; 2 days): 15 ppm; SI (Synergy Index, Qa/QA+Qb/QB) ([3]; 2 days): 1.00; QA: MIC of first component (A) acting alone ([3]; 3 days): 15 ppm; SI (Synergy Index, Qa/QA+Qb/QB) ([3]; 3 days): 1.00; QA: MIC of first component (A) acting alone [1, 12]: 20 ppm; QA: MIC of first component (A) acting alone [1, 10]: 20 ppm; QA: MIC of first component (A) acting alone [2, 7]: 20 ppm"
"CC(C(=O)O)N(CC(=O)O)CC(=O)O (stereo not shown) [MDGA, methyl glycine diacetic acid]",–,–,–,–,–,–,1.00,–,1.00,–
"O=C(O)/C=C\C(=O)O [maleic acid, 2-butenedioic acid]",–,8000 µg/mL,–,1.00,–,1.00,–,–,–,–
"COc1ccc(C(=O)O)cc1 [anisic acid, 4-methoxybenzoic acid]",–,8000 µg/mL,1.00,–,–,1.00,–,–,–,"MIC [1, 6]: 2000 µg/mL"
"Cn1sccc1=O [MIT, 2-methyl-4-isothiazolin-3-one]",–,–,1.00,1.00,1.00,–,1.00,1.00,1.00,"QA: MIC of first component (A) acting alone [1, 4]: 200 ppm; MIC ([1]; ATCC16404, 72 h, read-out: QA: MIC of first component (A) acting alone, A. niger 16404, PDB medium, 3 days): 300 µg/mL; MIC ([1]; ATCC16404, 144 h, read-out: QA: MIC of first component (A) acting alone, A. niger 16404, PDB medium, 6 days): 300 µg/mL; MIC ([1]; ATCC16404, 240 h, read-out: QA: MIC of first component (A) acting alone, A. niger 16404, PDB medium, 10 days): 300 µg/mL; MIC ([2]; ATCC10231, 24 h, read-out: QA: MIC of first component (A) acting alone): 200 µg/mL; MIC ([2]; ATCC10231, 48 h, read-out: QA: MIC of first component (A) acting alone): 200 µg/mL; MIC ([2]; ATCC10231, 72 h, read-out: QA: MIC of first component (A) acting alone): 200 µg/mL"
"O=C(O)CN(CCN(CC(=O)O)CC(=O)O)CCN(CC(=O)O)CC(=O)O [DTPA, diethylene triamine pentacetic acid]",–,–,1.00,–,1.00,–,–,1.00,–,"QB: MIC of second component (B) acting alone [1, 4]: 800 ppm; QB: MIC of second component (B) acting alone [1, 12]: 2000 ppm; QB: MIC of second component (B) acting alone [2, 7]: 2000 ppm"
